The text below walks through data of BindingDB's records for doi:10.7270/Q2DF6PMF (Nmmlsc, 2007).

The target in the assay is T1, N-formyl peptide receptor 2 (Homo sapiens, UniProt P25090).
T1 sequence (P25090 whole entry): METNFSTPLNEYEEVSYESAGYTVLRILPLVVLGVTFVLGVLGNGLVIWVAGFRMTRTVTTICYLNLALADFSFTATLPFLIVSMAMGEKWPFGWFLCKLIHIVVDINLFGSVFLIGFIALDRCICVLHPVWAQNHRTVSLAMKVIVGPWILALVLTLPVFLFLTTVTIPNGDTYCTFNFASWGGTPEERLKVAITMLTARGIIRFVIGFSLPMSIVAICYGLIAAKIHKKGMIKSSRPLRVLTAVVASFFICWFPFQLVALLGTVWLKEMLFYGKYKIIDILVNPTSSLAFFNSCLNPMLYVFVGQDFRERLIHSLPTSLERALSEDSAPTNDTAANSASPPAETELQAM
Nature of the assay: FPRL1 binding inhibitor potency, dose response, cell-based, FPR counter-screen, fluorescent ligand (AID 520). On the technique in general: Counterscreens check selectivity or assay interference.

In general, IC50 refers to the concentration needed to halve the response being measured. As a reminder, the Ki is a measure of affinity in units of concentration, obtained from inhibition or displacement. High values mean weaker binding, low ones tighter binding.

The structures appear in SMILES notation.

In turn, `Cc1ccc(C2C(C(=O)c3sc(C)nc3C)C(=O)C(=O)N2CCN2CCOCC2)o1` (stereo not drawn) [3-(2,4-dimethyl-1,3-thiazole-5-carbonyl)-4-hydroxy-2-(5-methylfuran-2-yl)-1-(2-morpholin-4-ylethyl)-2H-pyrrol-5-one] yielded an IC50 greater than 66.7 µM and a Ki greater than 40.3 µM.

The molecule `Cc1csc(NC(=O)CCn2c(=O)oc3ccccc32)n1` [3-(2-keto-1,3-benzoxazol-3-yl)-N-(4-methylthiazol-2-yl)propionamide] yielded an IC50 greater than 66.7 µM.

Molecule `Cc1oc2cc(O)cc(O)c2c(=O)c1-c1ccc2c(c1)OCCCO2` [3-(3,4-dihydro-2H-1,5-benzodioxepin-7-yl)-2-methyl-5,7-bis(oxidanyl)chromen-4-one] showed an IC50 greater than 66.7 µM.

As for `COc1ccc(-c2c(C)oc3c(CN4CCN(CCO)CC4)c(O)ccc3c2=O)cc1OC` [3-(3,4-dimethoxyphenyl)-7-hydroxy-8-[[4-(2-hydroxyethyl)-1-piperazinyl]methyl]-2-methyl-1-benzopyran-4-one], the IC50 is greater than 66.7 µM.

`CCC(CCC(=O)Nc1cccc(C(=O)O)c1)C(=O)O` (stereo not drawn) [3-(4-carboxyhexanoylamino)benzoic acid] showed an IC50 greater than 66.7 µM.

`Fc1ccc(-c2nnc3ccc(N4CCCC4)nn23)cc1` [3-(4-fluorophenyl)-6-(1-pyrrolidinyl)-[1,2,4]triazolo[4,3-b]pyridazine]: the IC50 is greater than 66.7 µM.

The molecule `COc1ccc(-c2nc(-c3ccc(Br)o3)no2)cc1OC` [3-(5-bromanylfuran-2-yl)-5-(3,4-dimethoxyphenyl)-1,2,4-oxadiazole] showed an IC50 greater than 66.7 µM.

As to `CCCOc1ccc(C2C(C(=O)c3ccc(C)o3)C(=O)C(=O)N2Cc2cccnc2)cc1` (stereo not drawn) [3-(5-methylfuran-2-yl)carbonyl-4-oxidanyl-2-(4-propoxyphenyl)-1-(pyridin-3-ylmethyl)-2H-pyrrol-5-one], the IC50 was greater than 66.7 µM and the Ki is greater than 40.3 µM.

`COCCN1C(=O)C(=O)C(C(=O)c2ccco2)C1c1cccc(Oc2ccccc2)c1` (stereo not drawn) [3-(furan-2-carbonyl)-4-hydroxy-1-(2-methoxyethyl)-2-(3-phenoxyphenyl)-2H-pyrrol-5-one]: the IC50 was greater than 66.7 µM and the Ki was greater than 40.3 µM.

As for `C=CCOc1cccc(C2C(C(=O)c3ccco3)C(=O)C(=O)N2CCN2CCOCC2)c1` (stereo not drawn) [3-(furan-2-carbonyl)-4-hydroxy-1-(2-morpholin-4-ylethyl)-2-(3-prop-2-enoxyphenyl)-2H-pyrrol-5-one], the IC50 was greater than 66.7 µM and the Ki was greater than 40.3 µM.

For `O=C1C(=O)N(CCc2ccccc2)C(c2cccnc2)C1C(=O)c1ccco1` (stereo not drawn) [3-(furan-2-carbonyl)-4-hydroxy-1-(2-phenylethyl)-2-pyridin-3-yl-2H-pyrrol-5-one], the IC50 is greater than 66.7 µM and the Ki is greater than 40.3 µM.

Molecule `CCCOc1ccc(C2C(C(=O)c3ccco3)C(=O)C(=O)N2CCCn2ccnc2)cc1` (stereo not drawn) [3-(furan-2-carbonyl)-4-hydroxy-1-(3-imidazol-1-ylpropyl)-2-(4-propoxyphenyl)-2H-pyrrol-5-one] showed an IC50 greater than 66.7 µM and a Ki greater than 40.3 µM.

As to `COCCCN1C(=O)C(=O)C(C(=O)c2ccco2)C1c1ccccc1` (stereo not drawn) [3-(furan-2-carbonyl)-4-hydroxy-1-(3-methoxypropyl)-2-phenyl-2H-pyrrol-5-one], the IC50 was greater than 66.7 µM and the Ki is greater than 40.3 µM.

Regarding `Cc1cc(N2C(=O)C(=O)C(C(=O)c3ccco3)C2c2cccnc2)no1` (stereo not drawn) [3-(furan-2-carbonyl)-4-hydroxy-1-(5-methyl-1,2-oxazol-3-yl)-2-pyridin-3-yl-2H-pyrrol-5-one], the IC50 was greater than 66.7 µM and the Ki was greater than 40.3 µM.

`O=C1C(=O)N(CC2CCCO2)C(c2cccnc2)C1C(=O)c1ccco1` (stereo not drawn) [3-(furan-2-carbonyl)-4-hydroxy-1-(oxolan-2-ylmethyl)-2-pyridin-3-yl-2H-pyrrol-5-one]: the IC50 was greater than 66.7 µM and the Ki is greater than 40.3 µM.

`COCc1cc(C2C(C(=O)c3ccco3)C(=O)C(=O)N2CCOCCO)ccc1O` (stereo not drawn) [3-(furan-2-carbonyl)-4-hydroxy-1-[2-(2-hydroxyethoxy)ethyl]-2-[4-hydroxy-3-(methoxymethyl)phenyl]-2H-pyrrol-5-one] had an IC50 greater than 66.7 µM and a Ki greater than 40.3 µM.

As to `COc1cc(C2C(C(=O)c3ccco3)C(=O)C(=O)N2CCc2ccccc2)ccc1O` (stereo not drawn) [3-(furan-2-carbonyl)-4-hydroxy-2-(4-hydroxy-3-methoxyphenyl)-1-(2-phenylethyl)-2H-pyrrol-5-one], the IC50 was greater than 66.7 µM and the Ki was greater than 40.3 µM.

For the molecule `C=CCOc1ccc(C2C(C(=O)c3ccco3)C(=O)C(=O)N2Cc2cccnc2)cc1` (stereo not drawn) [3-(furan-2-carbonyl)-4-hydroxy-2-(4-prop-2-enoxyphenyl)-1-(pyridin-3-ylmethyl)-2H-pyrrol-5-one], the IC50 was greater than 66.7 µM and the Ki was greater than 40.3 µM.

Regarding `O=C(Cn1c(=O)oc2ccccc21)N1CCN(c2ccccc2)CC1` [3-[2-keto-2-(4-phenylpiperazino)ethyl]-1,3-benzoxazol-2-one], the 50% inhibitory concentration (IC50) is greater than 66.7 µM.

With `Cc1nc2c(-c3ccc(F)cc3)c(C)nn2c(C)c1CCC(=O)NC(C)CCc1ccco1` (stereo not drawn) [3-[3-(4-fluorophenyl)-2,5,7-trimethyl-6-pyrazolo[1,5-a]pyrimidinyl]-N-[4-(2-furanyl)butan-2-yl]propanamide], the IC50 was greater than 66.7 µM.

Molecule `CCOC(=O)CCn1nc(-c2ccc(Cl)cc2)cc1N` [3-[5-amino-3-(4-chlorophenyl)-1-pyrazolyl]propanoic acid ethyl ester] yielded an IC50 greater than 66.7 µM.

The molecule `Cc1ccccc1Nc1cc2ccccc2c(O)n1` [3-[(2-methylphenyl)amino]-2H-isoquinolin-1-one] returned an IC50 greater than 66.7 µM.

As for `Cc1ccc(Nc2ccc(C(=O)O)cc2N)cc1` [3-amino-4-(4-methylanilino)benzoic acid], the IC50 was greater than 66.7 µM.

The molecule `COc1ccc2ccccc2c1C1CC(=O)N2CN(C3CCCCC3)CSC2=C1C#N` (stereo not drawn) [3-cyclohexyl-8-(2-methoxynaphthalen-1-yl)-6-oxo-2,4,7,8-tetrahydropyrido[2,1-b][1,3,5]thiadiazine-9-carbonitrile] showed an IC50 greater than 66.7 µM.

`O=C1CCCC(=O)C1C(C#Cc1ccccc1)C1C(=O)CCCC1=O` [3-hydroxy-2-[1-(2-hydroxy-6-keto-cyclohexen-1-yl)-3-phenyl-prop-2-ynyl]cyclohex-2-en-1-one]: the IC50 was greater than 66.7 µM and the Ki was greater than 40.3 µM.

`Cc1c(C(=O)NC2CCCc3ccccc32)oc2ccc(S(=O)(=O)N3CCOCC3)cc12` (stereo not drawn) [3-methyl-5-(4-morpholinylsulfonyl)-N-(1,2,3,4-tetrahydronaphthalen-1-yl)-2-benzofurancarboxamide] gave an IC50 greater than 66.7 µM.

Regarding `O=C(Nc1nnc(-c2ccccc2Cl)o1)c1ccc(S(=O)(=O)N2CCCCCC2)cc1` [4-(1-azepanylsulfonyl)-N-[5-(2-chlorophenyl)-1,3,4-oxadiazol-2-yl]benzamide], the IC50 is greater than 66.7 µM.

With `CC1Oc2ccccc2N(Cc2ccccc2Cl)C1=O` (stereo not drawn) [4-(2-Chloro-benzyl)-2-methyl-4H-benzo[1,4]oxazin-3-one], the IC50 is greater than 66.7 µM.

The molecule `COc1ccc(-c2cc(C(F)(F)F)nc(N3CCCCC3)n2)cc1OC` [4-(3,4-dimethoxyphenyl)-2-(1-piperidinyl)-6-(trifluoromethyl)pyrimidine] gave an IC50 greater than 66.7 µM.

`COc1ccc(-c2cc(C(F)(F)F)nc(N3CCN(c4ccccc4)CC3)n2)cc1OC` [4-(3,4-dimethoxyphenyl)-2-(4-phenyl-1-piperazinyl)-6-(trifluoromethyl)pyrimidine]: the IC50 was greater than 66.7 µM.

The molecule `CCOC(=O)c1ccc(NC(=O)Nc2ccc3c4c(cccc24)C(=O)N3CC)cc1` [4-[(1-ethyl-2-keto-benzo[cd]indol-6-yl)carbamoylamino]benzoic acid ethyl ester] showed an IC50 greater than 66.7 µM.

As for `COC(=O)c1ccc(C2C(C(=O)c3ccc(OC)cc3)C(=O)C(=O)N2Cc2ccco2)cc1` (stereo not drawn) [4-[(3Z)-1-(2-furanylmethyl)-3-[hydroxy-(4-methoxyphenyl)methylidene]-4,5-dioxo-2-pyrrolidinyl]benzoic acid methyl ester], the IC50 was greater than 66.7 µM and the Ki was greater than 40.3 µM.

As for `COC(=O)c1[nH]c(C)c(C(=O)C2C(=O)C(=O)N(CCN3CCOCC3)C2c2cccnc2)c1C` (stereo not drawn) [4-[(E)-hydroxy-[1-[2-(4-morpholinyl)ethyl]-4,5-dioxo-2-(3-pyridinyl)-3-pyrrolidinylidene]methyl]-3,5-dimethyl-1H-pyrrole-2-carboxylic acid methyl ester], the IC50 is greater than 66.7 µM and the Ki was greater than 40.3 µM.

`CCOC(=O)N1CCC(NC(=O)c2cc(C(=O)Nc3ccc(OC)c(OC)c3)ccc2CO)CC1` [4-[[5-[(3,4-dimethoxyphenyl)carbamoyl]-2-methylol-benzoyl]amino]piperidine-1-carboxylic acid ethyl ester] showed an IC50 greater than 66.7 µM.

As for `O=C(c1ccc(Cl)cc1)N(Cc1cccs1)C1CCS(=O)(=O)C1` (stereo not drawn) [4-chloro-N-(1,1-diketothiolan-3-yl)-N-(2-thenyl)benzamide], the IC50 is greater than 66.7 µM.

Turning to `CC1CCN(c2nc(-c3ccccc3)c(C#N)c(=O)[nH]2)CC1` [4-hydroxy-2-(4-methylpiperidin-1-yl)-6-phenylpyrimidine-5-carbonitrile], the IC50 is greater than 66.7 µM.

For `O=C(O)CCCNc1cc(N2CCC3(CC2)OCCO3)c2noc3c2c1C(=O)c1ccccc1-3` [4-{[3-(1,4-dioxa-8-azaspiro[4.5]dec-8-yl)-6-oxo-6H-anthra[1,9-cd]isoxazol-5-yl]amino}butanoic acid], the IC50 came out at 10.9 µM.

In the case of `COc1ccc(-c2nnc(Nc3nc4c(OC)cccc4s3)o2)c(OC)c1` [5-(2,4-dimethoxyphenyl)-N-(4-methoxy-1,3-benzothiazol-2-yl)-1,3,4-oxadiazol-2-amine], the IC50 was greater than 66.7 µM.
